Legend:
Assay type in all cases: biochemical
PAK1 = target: T1, PAK1 (Homo sapiens, UniProt Q13153); experiment: Z'Lyte fluorescence-based (FRET) kinase assay, PAK1; details: ATP at Km apparent; 1 hr room temperature
T1 construct: Purified PAK kinase is incubated with ATP
Description: (§1) A fluorescence-based assay format is used to determine […] values of test compounds in vitro. Purified PAK kinase is incubated with ATP, and a test compound at various concentrations and a substrate peptide containing two fluorophores. In a second step, the reaction mix is incubated with a site-specific protease that cleaves non-phosphorylated but not phosphorylated substrate peptide, disrupting the FRET signal generated by the two fluorophores in the cleaved peptide (Z'Lyte™ Kinase assay platform; Life Technologies).
(§2) Reagents: 50 mM HEPES, pH 7.5; 0.01% BRIJ-35; 10 mM MgCl2; 1 mM EGTA, 2 uM substrate peptide Ser/Thr20 (proprietary Life Technologies Sequence), PAK enzyme [2.42-30.8 ng for PAK1, 0.29-6 ng for PAK2, 1.5-20 ng for PAK3 and 0.1-0.86 ng for PAK4; actual enzyme amounts depend on lot activity of the enzyme preparation]
(§3) Test compounds are dissolved in DMSO at various concentrations; the final DMSO concentration in the assay reaction is 1%.
(§4) ATP concentration at Km apparent is used in the assay [50 ? M ATP for PAK1 assay, 75 ? M ATP for PAK2 assay, 100 μM ATP for PAK3 assay, 5 μM ATP for PAK4 assay] in a total assay volume of 10 μl. […]
(§5) Plates are analyzed in a standard fluorescence plate reader (Tecan or equivalent) using an excitation wavelength of 400 nm and emission wavelengths of 445 nm and 520 nm. Inhibition of kinase reaction is determined by […]

PAK2 = PAK2 (Homo sapiens, UniProt Q13177); experiment: Z'Lyte fluorescence-based (FRET) kinase assay, PAK2; details: ATP at Km apparent; 1 hr room temperature
Description: as §1, §2, §3, §4, §5

PAK3 = PAK3 (Homo sapiens, UniProt O75914); experiment: Z'Lyte fluorescence-based (FRET) kinase assay, PAK3; details: ATP at Km apparent (100 μM ATP); 1 hr room temperature
Description: as §1, §2, §3, §4, §5

PAK4 = target: T2, PAK4 (Homo sapiens, UniProt O96013); experiment: Z'Lyte fluorescence-based (FRET) kinase assay, PAK4; details: ATP at Km apparent (5 μM ATP); 1 hr room temperature
T2 construct: Purified PAK kinase is incubated with ATP
Description: as §1, §2, §3, §4, §5

PAK2, sequence (Q13177 whole entry): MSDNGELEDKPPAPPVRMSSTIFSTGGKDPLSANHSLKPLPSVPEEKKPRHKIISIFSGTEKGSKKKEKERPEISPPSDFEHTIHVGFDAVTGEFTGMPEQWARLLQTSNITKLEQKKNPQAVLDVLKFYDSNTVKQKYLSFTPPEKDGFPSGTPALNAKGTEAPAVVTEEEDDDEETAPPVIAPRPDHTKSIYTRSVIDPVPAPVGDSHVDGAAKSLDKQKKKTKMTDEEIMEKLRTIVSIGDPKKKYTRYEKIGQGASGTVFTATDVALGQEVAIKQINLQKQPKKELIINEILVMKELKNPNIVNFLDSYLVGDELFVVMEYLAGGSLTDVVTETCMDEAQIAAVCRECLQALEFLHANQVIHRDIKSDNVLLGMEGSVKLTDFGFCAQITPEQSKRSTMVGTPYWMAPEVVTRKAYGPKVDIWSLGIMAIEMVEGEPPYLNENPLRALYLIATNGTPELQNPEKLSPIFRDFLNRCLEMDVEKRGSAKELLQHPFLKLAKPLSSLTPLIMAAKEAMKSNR
T1 sequence (Q13153 whole entry): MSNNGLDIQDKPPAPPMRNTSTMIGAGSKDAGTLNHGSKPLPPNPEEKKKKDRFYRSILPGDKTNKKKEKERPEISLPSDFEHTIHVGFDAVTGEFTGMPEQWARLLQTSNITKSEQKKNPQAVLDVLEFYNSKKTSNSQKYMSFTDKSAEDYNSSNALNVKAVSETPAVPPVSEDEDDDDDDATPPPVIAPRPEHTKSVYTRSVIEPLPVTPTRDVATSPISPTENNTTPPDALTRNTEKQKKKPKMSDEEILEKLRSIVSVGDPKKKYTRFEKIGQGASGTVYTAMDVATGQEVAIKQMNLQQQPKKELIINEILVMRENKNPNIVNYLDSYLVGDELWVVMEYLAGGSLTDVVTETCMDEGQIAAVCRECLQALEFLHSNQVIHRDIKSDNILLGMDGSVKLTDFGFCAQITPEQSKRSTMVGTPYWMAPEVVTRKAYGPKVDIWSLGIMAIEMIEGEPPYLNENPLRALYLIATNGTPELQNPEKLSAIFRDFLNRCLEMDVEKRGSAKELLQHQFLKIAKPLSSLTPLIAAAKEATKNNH
PAK3, sequence (O75914 whole entry): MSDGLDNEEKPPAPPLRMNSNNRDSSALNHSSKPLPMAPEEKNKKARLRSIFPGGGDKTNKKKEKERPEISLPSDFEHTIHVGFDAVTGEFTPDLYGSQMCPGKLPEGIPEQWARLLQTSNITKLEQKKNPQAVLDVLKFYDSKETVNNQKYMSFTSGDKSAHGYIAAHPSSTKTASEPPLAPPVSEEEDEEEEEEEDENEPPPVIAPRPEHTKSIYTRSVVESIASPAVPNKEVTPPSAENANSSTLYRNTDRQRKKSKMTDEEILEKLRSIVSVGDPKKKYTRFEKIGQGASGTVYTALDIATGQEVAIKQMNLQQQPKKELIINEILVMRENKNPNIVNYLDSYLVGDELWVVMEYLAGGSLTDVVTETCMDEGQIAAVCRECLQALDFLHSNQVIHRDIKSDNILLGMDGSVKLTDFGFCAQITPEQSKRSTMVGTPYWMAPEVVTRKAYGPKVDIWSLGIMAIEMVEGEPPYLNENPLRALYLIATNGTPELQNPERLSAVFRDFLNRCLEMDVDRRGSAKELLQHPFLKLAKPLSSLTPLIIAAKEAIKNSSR
T2 sequence (O96013 whole entry): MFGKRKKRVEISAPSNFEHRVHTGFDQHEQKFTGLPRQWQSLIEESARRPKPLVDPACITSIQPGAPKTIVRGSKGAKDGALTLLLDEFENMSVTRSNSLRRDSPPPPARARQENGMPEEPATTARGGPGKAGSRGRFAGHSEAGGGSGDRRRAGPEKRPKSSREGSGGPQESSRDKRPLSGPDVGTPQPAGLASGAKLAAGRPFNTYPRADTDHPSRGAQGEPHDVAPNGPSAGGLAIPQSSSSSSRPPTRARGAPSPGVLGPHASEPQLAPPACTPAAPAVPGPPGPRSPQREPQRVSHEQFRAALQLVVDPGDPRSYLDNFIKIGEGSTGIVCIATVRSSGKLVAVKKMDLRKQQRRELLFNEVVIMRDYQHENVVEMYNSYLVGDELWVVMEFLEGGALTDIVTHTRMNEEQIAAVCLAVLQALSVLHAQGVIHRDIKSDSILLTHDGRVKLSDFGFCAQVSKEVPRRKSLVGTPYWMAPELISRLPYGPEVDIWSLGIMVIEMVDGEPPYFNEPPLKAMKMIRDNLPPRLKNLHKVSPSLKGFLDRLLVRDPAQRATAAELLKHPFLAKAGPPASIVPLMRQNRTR

Row | IC50 (PAK1) | IC50 (PAK2) | IC50 (PAK3) | IC50 (PAK4) | SMILES
1 | < 1000 nM | < 1000 nM | < 1000 nM | < 1000 nM | CN1CCN(c2ccc(Nc3ncc4ccc(=O)n(Cc5c(O)cccc5Br)c4n3)cc2)CC1 [compound 123]
2 | < 1000 nM | < 1000 nM | < 1000 nM | < 1000 nM | CN1CCN(c2ccc(Nc3ncc4ccc(=O)n(Cc5c(O)cccc5F)c4n3)cc2)CC1 [compound 105]

From patent US20130225575A1, “METHODS FOR TREATING NEUROLOGICAL CONDITIONS” (AFRAXIS, INC., priority 2010, published 2013)
